Results from US4562196A, “2,4-Diaminopyridine as a pharmacologic agent” (Nelson Research & Development, priority 1984, dated 1985).

How the values were obtained:
[1] = system: neuromuscular transmission blocked with pancuronium bromide (rat phrenic nerve-hemidiaphragm); test: Rat hemidiaphragm: antagonism of pancuronium blockade in vitro; design: species or system male Wistar rats; conditions: for EC50: 90% block by pancuronium bromide about 8×10^-6 M, 37° C., cumulative addition, read-out: EC50 (concentration that produces a 50% antagonism)
Method: Left hemidiaphragms with their phrenic nerves were removed from male Wistar rats weighing 280-320 g. and were mounted in an organ bath, containing Krebs solution, maintained at 37° C. and gassed with oxygen containing 5% CO2. The nerve was stimulated at a frequency of 0.1 Hz via electrodes with rectangular pulses of 0.3 ms duration and of a strength greater than that required to reproduce maximal twitch.

[2] = system: guinea-pig ileum; test: Ileum of the guinea pig: activity on smooth muscle; conditions: for pD2 (negative logarithm of the dose required to produce 50% of the maximum response): compared to maximal contraction by 2×10^-7 M carbochol, 37° C.
Method: This preparation tests the pharmacological activity on smooth muscle (Moritoki, Takei, Makomoto and Ishida, Arch. Int. Pharmacodyn. Ther. 232, 28 (1978).
The […] of the ileum was measured. This is compared to the maximal contraction caused by carbochol. From dose response curves the following pD2 values were determined (the pD2 value is the negative logarithm of the dose required to produce 50% of the maximum response).
Segments of guinea-pig ileum of 3 to 4 cm. length from 10 cm above the ileocaecal junction were used. The oral end of each segment was fixed to a hook and the distal end was connected to an isotonic transducer with a 1 g counterweight. The preparation was then immersed to an organ bath (25 ml) at 37° C. containing Krebs solution and bubbled with oxygen containing 5% CO2. After an equilibration time of about 1 hour, 2×10^-7 M carbochol was added to the bath for maximal contraction. After wash out (2×) the drugs were added cumulatively to the bath.

[3] = system: rat heart; test: Isolated heart of the rat: positive inotropic action; design: species or system male Wistar rats; conditions: for changes in frequency or E.C.G.: same perfusion as L.V.P.
Method: This preparation evaluates the positive inotropic action of a drug (Koomen, van Gilst, Zimmerman and Noordwijk, Arch. Int. Pharmacodyn. Ther. 255, 212 (1982)).
Solutions of the aminopyridines were added to the perfusion solution of the rat heart. The left ventricular pressure (L.V.P.) was recorded in order to evalute the positive inotropic action. Frequency and E.C.G. were also monitored. Male Wistar rats (270-300 g) were anaesthetized with diethyl ether. After heparinization the hearts were quickly removed. Subsequently the heart was perfused according to the method of Langendorff. The perfusion fluid contained: NaCl 128 mM; KCl 4.7 mM; CaCl2 1.35 mM; MgCl2 1.05 mM; NaHPO4 0.42 mM; NaHCO3 20.2 mM; glucose 11.1 mM. The pH of the perfusion fluid after aeration with 95% O2 --5% CO2 was 7.35±0.05 (37° C.). L.V.P. was measured by means of a catheter inserted in the left ventricule and connected to a pressure transducer. A biopolar E.C.G. was obtained by means of two silver electrodes: one attached to the metal inflow cannula and the other to the ventricular apex. Coronary flow (volume of perfusion fluid per time unit) was measured by a microprocessor, which controlled the perfusion pressure by adjusting the peristaltic perfusion pump.

[4] = system: neuromuscular block by pancuronium bromide (sciatic nerve-anterior tibialis); test: Rat sciatic nerve-anterior tibialis preparation: antagonism of neuromuscular block in vivo; design: species or system Rats; conditions: for ED50: Rattus norvegicus, iv, 10 min, read-out: ED50 (dose of drug producing a 50% antagonism), constant pancuronium infusion, 90-95% depression of twitch tension, cumulative dosing, 10 min interval
Method: This preparation is used to test the antagonistic action of aminopyridines against neuromuscular blocking agents in vivo. (Miller, Denissen, van der Pol, Agoston, Booy and Crul, J. Pharm. Pharmacol. 30, 699 (1978)).
Rats were administered a constant infusion of pancuronium bromide and when a constant block was achieved, one of the aminopyridines was administered. The ED50 's (dose of drug producing a 50% antagonism) were determined.
Rats (280-320 g) were anaesthetized with pentobarbital. Both jugular veins were cannulated for administration of drugs. A caratoid artery was cannulated for measurement and recording of arterial blood pressure. The trachea was intubated and ventilation controlled by means of a Braun air pump. The tendon of the left tibialist was freed, sectioned and connected to a force displacement transducer. The sciatic nerve was stimulated by supramaximal 0.1 Hz stimuli of 0.2 msec duration through a bipolar electrode. Twitch tension was recorded on a polygraph. The temperature of the rat was maintained at 37° C. with heating lamps. Pancuronium bromide was administered intravenously by continuous infusion until 90-95% depression of twitch tension was obtained. This infusion speed was maintained during the whole experiment. When the block was steady for at least 15 min one of the drugs was given cumulatively with 10 min interval.

[5] = system: ketamine-xylazine narcosis; test: Antagonism of ketamine-xylazine narcosis (central effects); assay type: in vivo, Rats
Method: This is a method of testing the central effects of the aminopyridines.
Rats were anaesthetized with xylazine (0.05 ml of a 2% soln, s.c.) and ketamine (0.1 ml of a soln, i.p.). After 10 min. the aminopyridines (1 mg./kg) were administered, i.v. The time required for "full recovery" (i.e. turning over and crawling) was measured. Groups of 10 rats were used for each treatment.

[6] = system: central nervous system; conditions: in vivo; cited from earlier work
[7] = system: mice; test: Acute toxicity (LD50), intraperitoneal, mice; assay type: in vivo; conditions: from LD50 values
Method: Moreover, the LD50 values for intraperotoneal 4-AP and 3,4-DAP in mice are 10 mg./kg. and 20 mg./kg., respectively (Vohra, et al. J. Med. Chem 8, 296-304 (1965)). The LD50 dosage corresponds to a lethal dose in 50% of the animals treated. Thus, although not as toxic as 4-AP, 3,4-DAP suffers from the similar disadvantage of high toxicity at dosage levels near those that would be used in therapy.

[8] = system: mice; conditions: i.p., Vohra et al., J. Med. Chem. 8, 296 (1965); cited from earlier work
[9] = in vitro; vs 4-AP; cited from earlier work
[10] = 4-AP compared with 3,4-DAP; cited from earlier work
[11] = system: potassium channel in axonal membranes; conditions: cited from earlier work
[12] = system: neuromuscular blocking drugs; conditions: with neostigmine and pyridostigmine; cited from earlier work

SMILES | EC50 [1] [µM] | pD2 (negative logarithm of the dose required to produce 50% of the maximum response) [2] | changes in frequency or E.C.G. [3] | ED50 [4] [mg/kg] | convulsions, central adverse effects [6] | toxicity relative to 2,4-DAP [7] | LD50 [8] [mg/kg] | action in vivo [10] | also measured
Nc1ccnc(N)c1 [2,4-Diaminopyridine, 2,4-diaminopyridine] | 15 | 4.52 | No changes in frequency or E.C.G. were noted | 0.14 | has not been shown to cause convulsions |  |  |  | potency relative to 3,4-diaminopyridine ([1]; vs 3,4-diaminopyridine): about the same potency as 3,4-diaminopyridine; potency relative to 4-aminopyridine ([1]; vs 4-aminopyridine): about 3.5 times more potent; potency relative to 4-aminopyridine ([2]; vs 4-aminopyridine): slightly more potent than 4-aminopyridine; increase of left ventricular pressure (L.V.P.) ([3]; 5×10^-6 mol/l to 10^-4 mol/l): up to 50%; effectiveness relative to 4-aminopyridine ([3]; vs 4-aminopyridine): significantly more effective than 4-aminopyridine; potency relative to 3,4-diaminopyridine ([4]; vs 3,4-diaminopyridine): about twice as potent as 3,4-diaminopyridine; potency relative to 4-aminopyridine ([4]; vs 4-aminopyridine): about 3 times more potent; recovery compared with saline controls ([5]; 1 mg./kg, vs saline controls): did not differ significantly from controls receiving saline; central actions relative to 3,4-diaminopyridine ([5]; vs 3,4-diaminopyridine): somewhat weaker than those of 3,4-diaminopyridine; central actions relative to 4-aminopyridine ([5]; vs 4-aminopyridine): much weaker than those of 4-aminopyridine
Nc1ccncc1N [3,4-Diaminopyridine, 3,4-diaminopyridine] | 10 |  |  | 0.25 | tendency to cause convulsions | an order of magnitude more toxic than the compound of the present invention | 20 | almost the same | peripheral and central action relative to 4-AP [9]: stronger peripheral action and less central action than 4-AP in vitro
Nc1ccncc1 [4-Aminopyridine, 4-aminopyridine] | 55 | 4.30 | No changes in frequency or E.C.G. were noted | 0.45 | hypertension and convulsions at dosage levels only slightly exceeding the clinical dosage | an order of magnitude more toxic than the compound of the present invention | 10 | almost the same | increase of left ventricular pressure (L.V.P.) ([3]; 2×10^-5 to 1×10^-4 mol/l): up to 40%; potassium channel blocking action [11]: potassium channel blocking action in axonal membranes; potentiation of anticholinesterase drugs [12]: potentiates anticholinesterase drugs
